Experimental data as given in publication PMC3297592, “Metabolism of Phosphatidylinositol 4-Kinase IIIα-Dependent PI4P Is Subverted by HCV and Is Targeted by a 4-Anilino Quinazoline with Antiviral Activity” (PLoS Pathogens, 2012).

Columns and labels:
Assay in all cases: ADP-Glo kinase assay
Assay type in all cases: biochemical
[1] = target: T1, PI4KIIIα-CD (catalytic domain of PI4KIIIα) (Homo sapiens, UniProt P42356)
T1 construct: gene PI4KA; catalytic domain from G873 to the natural C-terminus, N-terminal His6 tag (pFastBac HT-B) kept, Sf9 / baculovirus, Ni-Sepharose; primer adds start ATG GGG (MGMMQCVI...); ends ...NDIPY
T1 sequence (P42356 931-2102): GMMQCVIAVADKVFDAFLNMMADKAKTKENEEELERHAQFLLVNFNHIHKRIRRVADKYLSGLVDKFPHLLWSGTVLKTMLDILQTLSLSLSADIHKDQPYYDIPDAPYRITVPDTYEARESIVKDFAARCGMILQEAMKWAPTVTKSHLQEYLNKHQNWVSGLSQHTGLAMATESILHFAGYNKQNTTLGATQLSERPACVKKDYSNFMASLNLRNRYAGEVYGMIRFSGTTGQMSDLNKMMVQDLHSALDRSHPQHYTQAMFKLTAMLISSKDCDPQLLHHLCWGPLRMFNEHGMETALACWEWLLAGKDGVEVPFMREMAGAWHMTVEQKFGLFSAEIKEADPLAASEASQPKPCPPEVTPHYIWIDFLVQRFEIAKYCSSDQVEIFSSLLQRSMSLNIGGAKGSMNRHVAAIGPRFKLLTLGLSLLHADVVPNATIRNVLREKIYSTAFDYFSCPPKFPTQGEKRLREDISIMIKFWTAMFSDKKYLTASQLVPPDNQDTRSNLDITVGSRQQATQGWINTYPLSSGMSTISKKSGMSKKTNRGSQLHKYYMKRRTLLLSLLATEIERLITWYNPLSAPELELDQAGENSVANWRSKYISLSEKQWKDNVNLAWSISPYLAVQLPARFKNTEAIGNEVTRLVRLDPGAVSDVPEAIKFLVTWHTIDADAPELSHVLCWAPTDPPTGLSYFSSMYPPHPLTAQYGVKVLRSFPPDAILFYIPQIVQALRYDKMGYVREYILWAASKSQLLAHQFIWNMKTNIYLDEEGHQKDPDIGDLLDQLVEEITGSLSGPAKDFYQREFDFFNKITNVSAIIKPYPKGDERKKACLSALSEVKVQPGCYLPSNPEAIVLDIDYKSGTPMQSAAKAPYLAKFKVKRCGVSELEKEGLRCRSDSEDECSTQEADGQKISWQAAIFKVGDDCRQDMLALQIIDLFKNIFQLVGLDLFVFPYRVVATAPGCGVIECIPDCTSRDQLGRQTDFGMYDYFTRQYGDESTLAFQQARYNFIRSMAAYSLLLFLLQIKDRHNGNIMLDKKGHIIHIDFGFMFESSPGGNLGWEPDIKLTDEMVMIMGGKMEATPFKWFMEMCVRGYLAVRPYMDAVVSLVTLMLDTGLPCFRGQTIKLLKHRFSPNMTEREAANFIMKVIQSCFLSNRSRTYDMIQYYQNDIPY

PI3Kβ (p110β/p85α) = target: T2, PI3Kβ (p110β/p85α) (Homo sapiens, UniProt P42338)
T2 construct: gene PIK3CB; commercial purified p110β/p85α heterodimer (Millipore); with Phosphatidylinositol 3-kinase regulatory subunit alpha
T2 sequence (P42338 whole entry): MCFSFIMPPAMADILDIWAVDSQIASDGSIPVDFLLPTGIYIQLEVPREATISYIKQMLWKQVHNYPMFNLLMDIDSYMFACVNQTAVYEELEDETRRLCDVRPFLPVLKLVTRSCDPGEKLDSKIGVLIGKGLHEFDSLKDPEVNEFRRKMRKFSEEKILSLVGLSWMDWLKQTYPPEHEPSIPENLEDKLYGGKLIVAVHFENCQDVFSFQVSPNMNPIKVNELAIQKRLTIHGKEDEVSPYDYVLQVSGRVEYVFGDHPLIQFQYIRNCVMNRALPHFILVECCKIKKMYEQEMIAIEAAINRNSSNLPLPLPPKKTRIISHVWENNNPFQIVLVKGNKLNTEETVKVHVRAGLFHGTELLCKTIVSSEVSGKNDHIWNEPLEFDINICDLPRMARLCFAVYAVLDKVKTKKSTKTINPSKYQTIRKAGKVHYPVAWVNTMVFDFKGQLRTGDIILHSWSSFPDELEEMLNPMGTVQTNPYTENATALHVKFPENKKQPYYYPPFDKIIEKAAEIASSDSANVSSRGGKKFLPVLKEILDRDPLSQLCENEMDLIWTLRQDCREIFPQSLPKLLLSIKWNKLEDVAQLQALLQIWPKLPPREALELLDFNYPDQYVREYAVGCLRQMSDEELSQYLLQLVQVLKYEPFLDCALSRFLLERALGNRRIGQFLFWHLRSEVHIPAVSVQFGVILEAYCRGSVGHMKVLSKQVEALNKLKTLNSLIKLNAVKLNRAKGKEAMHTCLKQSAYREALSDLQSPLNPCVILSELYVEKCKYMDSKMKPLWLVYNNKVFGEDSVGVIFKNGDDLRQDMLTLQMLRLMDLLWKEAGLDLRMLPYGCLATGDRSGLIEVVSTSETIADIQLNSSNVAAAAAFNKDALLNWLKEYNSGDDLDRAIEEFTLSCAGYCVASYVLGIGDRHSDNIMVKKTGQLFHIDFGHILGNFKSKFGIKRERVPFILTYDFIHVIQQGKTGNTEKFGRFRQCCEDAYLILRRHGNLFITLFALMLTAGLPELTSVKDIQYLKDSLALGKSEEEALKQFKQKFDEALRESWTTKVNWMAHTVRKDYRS
T2 sequence (P27986 2-724 partner): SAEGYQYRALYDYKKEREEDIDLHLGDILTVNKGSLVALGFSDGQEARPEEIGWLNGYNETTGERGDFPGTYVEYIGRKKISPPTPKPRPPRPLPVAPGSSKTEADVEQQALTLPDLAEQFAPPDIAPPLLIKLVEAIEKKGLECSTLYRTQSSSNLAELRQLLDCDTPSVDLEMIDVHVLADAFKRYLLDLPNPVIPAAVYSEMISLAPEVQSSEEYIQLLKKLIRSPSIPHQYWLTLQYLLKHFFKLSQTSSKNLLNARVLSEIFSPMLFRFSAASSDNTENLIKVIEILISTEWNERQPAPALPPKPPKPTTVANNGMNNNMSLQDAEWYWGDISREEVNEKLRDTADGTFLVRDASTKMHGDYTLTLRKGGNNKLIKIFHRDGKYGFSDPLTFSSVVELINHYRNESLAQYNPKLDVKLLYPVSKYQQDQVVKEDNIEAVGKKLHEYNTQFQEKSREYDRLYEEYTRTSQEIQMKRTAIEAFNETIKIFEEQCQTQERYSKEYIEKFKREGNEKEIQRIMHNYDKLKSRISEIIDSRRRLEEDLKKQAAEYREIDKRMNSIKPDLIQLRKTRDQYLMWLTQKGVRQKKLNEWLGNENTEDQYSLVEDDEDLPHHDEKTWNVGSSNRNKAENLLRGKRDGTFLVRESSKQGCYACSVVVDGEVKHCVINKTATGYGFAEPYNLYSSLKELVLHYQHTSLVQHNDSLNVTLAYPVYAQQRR

PI3Kα (p110α/p85α) = target: T3, PI3Kα (p110α/p85α) (Homo sapiens, UniProt P42336)
T3 construct: gene PIK3CA; commercial purified p110α/p85α heterodimer (Millipore); with Phosphatidylinositol 3-kinase regulatory subunit alpha
T3 sequence (P42336 whole entry): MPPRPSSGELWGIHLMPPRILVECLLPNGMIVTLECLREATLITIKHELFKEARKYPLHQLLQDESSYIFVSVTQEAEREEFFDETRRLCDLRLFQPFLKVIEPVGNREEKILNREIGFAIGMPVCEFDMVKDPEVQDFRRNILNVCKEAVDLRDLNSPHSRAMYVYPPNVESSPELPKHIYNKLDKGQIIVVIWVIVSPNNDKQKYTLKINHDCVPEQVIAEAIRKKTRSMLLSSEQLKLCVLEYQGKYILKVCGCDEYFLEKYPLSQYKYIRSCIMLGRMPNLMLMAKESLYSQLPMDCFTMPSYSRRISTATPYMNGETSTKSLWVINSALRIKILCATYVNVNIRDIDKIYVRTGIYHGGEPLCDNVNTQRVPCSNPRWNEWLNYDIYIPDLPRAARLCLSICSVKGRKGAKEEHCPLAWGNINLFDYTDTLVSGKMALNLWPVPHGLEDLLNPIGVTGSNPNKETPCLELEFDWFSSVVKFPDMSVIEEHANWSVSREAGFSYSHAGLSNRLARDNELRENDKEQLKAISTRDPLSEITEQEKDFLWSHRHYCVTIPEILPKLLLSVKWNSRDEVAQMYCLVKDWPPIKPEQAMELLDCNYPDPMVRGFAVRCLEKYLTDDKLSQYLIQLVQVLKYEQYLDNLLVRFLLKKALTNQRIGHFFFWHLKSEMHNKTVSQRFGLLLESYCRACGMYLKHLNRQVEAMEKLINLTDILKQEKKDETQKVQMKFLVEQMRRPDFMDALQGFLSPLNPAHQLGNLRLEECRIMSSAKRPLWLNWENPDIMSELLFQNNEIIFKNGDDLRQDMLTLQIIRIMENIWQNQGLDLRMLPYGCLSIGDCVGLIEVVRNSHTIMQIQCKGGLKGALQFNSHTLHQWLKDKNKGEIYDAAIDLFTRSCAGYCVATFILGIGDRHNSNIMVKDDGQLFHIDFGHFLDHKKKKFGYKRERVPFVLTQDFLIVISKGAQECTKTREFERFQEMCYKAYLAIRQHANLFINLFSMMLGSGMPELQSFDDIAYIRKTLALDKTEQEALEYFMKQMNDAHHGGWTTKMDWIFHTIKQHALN
T3 sequence (P27986 2-724 partner): as the sequence (P27986 2-724 partner) above

## OCc1ccc(-c2ccc3ncnc(Nc4ccc(N5CCOCC5)cc4)c3c2)o1 [AL-9]
[1]
  IC50: 570 nM
PI3Kβ (p110β/p85α)
  inhibition at 10 µM: 40%
PI3Kα (p110α/p85α)
  IC50: 1100 nM
